Article PMC6095626, “Screening of the Pathogen Box for inhibitors with dual efficacy against Giardia lamblia and Cryptosporidium parvum” (PLoS Neglected Tropical Diseases, 2018)

How the values were obtained:
[1] = tested on: C. parvum (UGA1 Nluc expressing strain in HCT-8 cells); test: microbe, parasite or virus in culture; format: cell-based, Cryptosporidium parvum; details: for Crypto (10 uM) Mean % inhibition: initial Pathogen Box screen, single concentration 10 µM, inhibition compared to DMSO wells
Method: Growth inhibition and EC50 determination assays were performed using UGA1 Nluc expressing C. parvum strain in HCT-8 cells (ATCC^©, Manassas, VA) as previously described. HCT-8 cells were inoculated onto 96-well plates and allowed to grow for 48 hours to 90–100% confluence and then treated with single concentration (10 μM) or serially diluted compounds prior to oocyst infection. C. parvum oocysts were incubated for 10 minutes in 10% bleach at room temperature and then washed with DPBS. […] The cell monolayers were lysed for 1 hour before adding Nano-Glo® luciferase reagent (Promega, Madison, WI), and measuring relative luminescence units (RLU) in an EnVision Plate Reader (Perkin Elmer, Waltham, MA). Several parameters, including reproducibility and reliability, were previously evaluated to optimize this assay for low and high-throughput (HTP) screening of small molecule compounds against C. parvum. EC50 values were calculated using Prism 7 software (GraphPad Software, San Diego, CA).
C. parvum screening against the Pathogen Box compounds was performed as previously described starting at a concentration of 10 μM [23].

[2] = tested on: G. lamblia trophozoites (luciferase expressing, WBC6); test: microbe, parasite or virus in culture; format: cell-based, Giardia lamblia; details: initial Pathogen Box screen, single concentration 16 µM, inhibition compared to DMSO wells
Method: Trophozoites were harvested by chilling cultures on ice for 30 minutes and plated by adding 150 μL per well at a concentration of 250,000 cells/mL. Metronidazole (Sigma, St. Louis, MO) was used as a control and was serially diluted 1:2 from 40 μM to 0.04 μM and 150 μL was added to the 150 μL of the G. lamblia trophozoites. Plates were covered in plastic low-evaporation lids, sealed in individual anaerobic BD GasPak Bio-Bags (Becton Dickinson, San Jose, CA) and incubated at 37 °C for 24 hours. […] A duplicate plate was concurrently set up and assayed using a MOXI Z Mini Automated Cell Counter Kit (Orflo, Ketchum, ID). Results obtained from the bioluminescence assay and the MOXI counter data were compared to evaluate their correlation to each another. Albendazole (Sigma, St. Louis, MO), an alternative giardiasis therapeutic, was assayed in concentrations from 4 μM to 0.004 μM with only the luciferase expressing G. lamblia cells. […]

SMILES	Crypto (10 uM) Mean % inhibition [1]	Giardia (16 uM) Mean % inhibition [2]	C. parvum cell growth inhibition in the initial screen ([1]; 10 μM, 48 hours) [%]	EC50 ([1]; Nluc C. parvum in HCT-8 cells, 48 hours, read-out: C. parvum EC50) [nM]
Cc1nc2ccccn2c1C(=O)NCc1ccc(Cl)cc1 [MMV012074]	57%	14%		
Cc1cc(Nc2ccncc2)n2nc(C)c(-c3ccccc3Cl)c2n1 [MMV016136]	46%	X* (Mean or standard deviation are negative but not significantly different from the control to be a growth promoter)		
Cc1ccc(-c2cc(C(=O)Nc3cccnc3)c3cc(Br)ccc3n2)cc1 [MMV016838]	42%	63%		
Cc1cc(C)n2nc(C(=O)Nc3cc(C(F)(F)F)ccc3N3CCOCC3)nc2n1 [MMV019087]	35%	X* (Mean or standard deviation are negative but not significantly different from the control to be a growth promoter)		
Cc1ccc2c(c1C)NC(=O)C21NN=C(c2ccccc2)S1 (stereo not drawn) [MMV019189]	95%	X* (Mean or standard deviation are negative but not significantly different from the control to be a growth promoter)	≥ 95	2520
COc1ccc(C2CC(c3cccs3)=NN2C(=O)c2ccco2)cc1OC (stereo not drawn) [MMV019234]	X* (Mean or standard deviation are negative but not significantly different from the control to be a growth promoter)	20%		
CCC(NC(=O)c1ccccc1NC(=O)c1ccc(C)cc1)C(=O)OC (stereo not drawn) [MMV019551]	23%	5.53%		
CCN(CC)S(=O)(=O)c1ccc(Cl)c(C(=O)Nc2ccc3nc(C)sc3c2)c1 [MMV019721]	82%	15%		
Cc1ccc(S(=O)(=O)N2CCN(C(=O)c3cc(-c4ccccc4)n[nH]3)CC2)cc1 [MMV019742]	X* (Mean or standard deviation are negative but not significantly different from the control to be a growth promoter)	X* (Mean or standard deviation are negative but not significantly different from the control to be a growth promoter)		
CCOc1ccccc1C(=O)Nc1cccc(-c2nc3ncccn3c2C)c1 [MMV019790]	X* (Mean or standard deviation are negative but not significantly different from the control to be a growth promoter)	X* (Mean or standard deviation are negative but not significantly different from the control to be a growth promoter)		
Cc1ccc2cc(C3NC(=O)c4ccccc4N3)c(Cl)nc2c1 (stereo not drawn) [MMV019807]	79%	24%		
O=C(Nc1ccnc(-c2cccnc2)n1)c1cc(C(F)(F)F)cc(C(F)(F)F)c1 [MMV019838]	71%	16%		
Cc1nn(C)cc1C(C)Nc1nncc(-c2ccc(C(F)(F)F)cc2)n1 (stereo not drawn) [MMV019993]	X* (Mean or standard deviation are negative but not significantly different from the control to be a growth promoter)	22%		
COc1cccc(CC(=O)N2CCC(n3c(C)nc4ccc(F)cc43)CC2)c1 [MMV020081]	X* (Mean or standard deviation are negative but not significantly different from the control to be a growth promoter)	X* (Mean or standard deviation are negative but not significantly different from the control to be a growth promoter)		
CC1CC1C(=O)NC1CCN(CC2(c3ccccc3)CCCCC2)CC1 (stereo not drawn) [MMV020120]	66%	2.27%		
CNC(=O)c1cc(S(=O)(=O)N2CCN(c3ccccn3)CC2)cs1 [MMV020136]	X* (Mean or standard deviation are negative but not significantly different from the control to be a growth promoter)	X* (Mean or standard deviation are negative but not significantly different from the control to be a growth promoter)		
Cc1cc(C(=O)Nc2ccc(-c3ccccc3)cc2)no1 [MMV020152]	X* (Mean or standard deviation are negative but not significantly different from the control to be a growth promoter)	43%		
CC(C)NCC(=O)Nc1cccc(C(=O)Nc2cccc(C(F)(F)F)c2)c1 [MMV020165]	45%	81%		
Cc1ccc(NC(=O)c2cc(S(=O)(=O)NC(C)(C)C)ccc2C)nc1 [MMV020289]	X* (Mean or standard deviation are negative but not significantly different from the control to be a growth promoter)	26%		

SMILES	Crypto (10 uM) Mean % inhibition [1]	Giardia (16 uM) Mean % inhibition [2]	C. parvum cell growth inhibition in the initial screen ([1]; 10 μM, 48 hours) [%]	EC50 ([1]; Nluc C. parvum in HCT-8 cells, 48 hours, read-out: C. parvum EC50) [nM]
CC(C(=O)N1CCCC1)N1CCN(S(=O)(=O)c2ccc(C(C)(C)C)cc2)CC1 (stereo not drawn) [MMV020291]	61%	13%		
Cc1nnc(NC(=O)c2cn(-c3ccccc3)nc2-c2ccccc2C)o1 [MMV020320]	91%	X* (Mean or standard deviation are negative but not significantly different from the control to be a growth promoter)		
COc1ccccc1C(C)NCC(=O)Nc1cc(C(F)(F)F)ccc1Cl (stereo not drawn) [MMV020321]	83%	X* (Mean or standard deviation are negative but not significantly different from the control to be a growth promoter)		
CC1CCCN(C(=O)C(C)Nc2cc(Cl)ccc2N2CCOCC2)C1 (stereo not drawn) [MMV020388]	X* (Mean or standard deviation are negative but not significantly different from the control to be a growth promoter)	62%		
CC(C)C(C(=O)Nc1ccc(S(=O)(=O)N(C)C)cc1)c1ccc(Cl)cc1 (stereo not drawn) [MMV020391]	67%	8%		
Cc1ccc(Oc2ccc(NC(=O)CNc3ccccc3N3CCCC3=O)cc2)cc1 [MMV020512]	80%	X* (Mean or standard deviation are negative but not significantly different from the control to be a growth promoter)		
COc1ccccc1CNC(=O)c1cc(C2CC2)nc2c1cnn2C(C)C [MMV020517]	X* (Mean or standard deviation are negative but not significantly different from the control to be a growth promoter)	X* (Mean or standard deviation are negative but not significantly different from the control to be a growth promoter)		
Cc1cc2ccccc2n1CC(=O)N1CC(C(=O)N2CCCCC2)Oc2ccccc21 (stereo not drawn) [MMV020520]	68%	6.36%		
O=C(NC1CC1)c1ccc(N2CCOc3ccc(Cl)cc32)s1 [MMV020537]	55%	4.66%		
CC(C)C(NC(=O)Cc1cccc2ccccc12)C(=O)Nc1cccc(C#N)c1 (stereo not drawn) [MMV020591]	55%	16%		
Cc1noc(C)c1C(=O)N1CCCC(c2[nH]c3c(C)cccc3c2-c2ccncc2)C1 (stereo not drawn) [MMV020623]	43%	X* (Mean or standard deviation are negative but not significantly different from the control to be a growth promoter)		
COc1ccc(-c2cncc3ccc(C(=O)NCCCn4ccnc4)nc23)cc1 [MMV020670]	42%	19%		
COc1ccc(Cl)cc1NC(=O)CN(C)C(=O)c1cnn(-c2ccccc2)n1 [MMV020710]	43%	7.5%		
CC(C)(C)c1cc(C(=O)Nc2cccnc2)cc(C(=O)Nc2cccnc2)c1 [MMV020982]	67%	10%		
c1ccc(-c2nc(NC3CCCCC3)cc(C3CC3)n2)nc1 [MMV021013]	92%	65%		
CO/C=C(\C(=O)OC)c1ccccc1Oc1cc(Oc2ccccc2C#N)ncn1 [MMV021057]	51%	3.75%		
Cc1cc(NCC(C)C)c2[nH]nc(-c3ccccc3)c2n1 [MMV021375]	X* (Mean or standard deviation are negative but not significantly different from the control to be a growth promoter)	62%		
Cc1cc(NCCc2ccccc2)nc(NC(=N)Nc2ccc(Cl)cc2)n1 [MMV021660]	X* (Mean or standard deviation are negative but not significantly different from the control to be a growth promoter)	90%		
CN1CCC(NCc2cccc(-c3ccc(S(=O)(=O)NCc4ccccc4)cc3)c2)CC1 [MMV022029]	X* (Mean or standard deviation are negative but not significantly different from the control to be a growth promoter)	89%		
